Like-named read-outs stand apart in the source and are kept apart here.
Legend:
P388 Murine Leukemia = P388 Murine Leukemia in vivo; conditions: for antitumor activity / toxicity: Ic 60, 40 and 27 mg/kg/dose, Im 120, 80 and 54 mg/kg/dose; for maximally tolerated dose: mouse, in vivo
Method: Two of the compounds of the present invention (Ic and Im) were also tested against P388 Murine Leukemia.

[1] = test system: human tumor cell lines (approximately 60); assay: NCI in vitro human tumor cell line screen (SRB), mean graph midpoints over all cell lines; type: cell-based; conditions: for CC50 / GI50 / IC (TGI): Homo sapiens, average of all cell lines, 48 h; for CC50: 50% cell death (-50% growth), read-out: log10 LC50 mean graph midpoint (converted); for IC (TGI): total cell growth inhibition (0% growth), read-out: log10 TGI mean graph midpoint (converted); for in vitro activity in words: various in vitro cell lines, IC50, average GI50, mean graph pattern
Method: In performing in vitro human tumor cell line assay, a total of approximately 60 human tumor cell lines derived from ten cancer types (leukemia, non-small cell lung cancer, small cell lung cancer, colon cancer, CNS cancer, melanoma, ovarian cancer, renal cancer, breast cancer and prostate cancer) were used in this assay. Compounds were tested at different concentrations against every cell line. All lines are inoculated into a series of standard 96-well microtiter plates on day 0, in the majority of cases at 20,000 cells/well, and then pre-incubated in the absence of testing agent for 24 hours. A testing agent was then added in five 10-fold dilutions and incubated for a further period of 48 hours. Following this, the cells are fixed in situ, washed, and dried. Sulforhodamine B (SRB, protein binding dye) is added, followed by further washing and drying of the stained adherent cell mass. The bound stain is solubilized and measured spectrophotometrically on an automatic plate reader.
For each compound, dose response curves for each cell line were measured with five different drug concentrations, and the concentration causing 50% cell growth inhibition (GI50), total cell growth inhibition (TGI, 0% growth), and 50% cell death (LC50, -50% growth) compared with the control was calculated. […] In these graphs, the mean logarithmic value of GI50 in all cell lines for each tested compound is used as the midpoint of that bar graph.

[2] = test system: SK-MEL-28 Melanoma Xenografts; assay: Early Stage SK-MEL-28 Melanoma Xenografts; conditions: for Drug Deaths: of 6 mice; for Opt. % T/C: >40 considered inactive
Method: (§3) In this in vivo model Murine or human tumor fragments (30 mg) are implanted subcutaneously into the axillary region of pathogen-free immunocompetent or immunodefficient mice, respectively, on experimental day 0. Test agent treatment is initiated either on the day which is historically associated with the start of tumor growth, or when the tumor is palpable. Tumor size and body weights are obtained approximately two times per week. Tumor weights are calculated from caliper measurements of tumor dimensions in mm using the formula for a prolate ellipsoid:
(§4) (L×W^2)/2; where L is the longer of the 2 measurements
(§5) Generally, tumor size is monitored until an upper weight limit of 500 mg is attained.

[3] = test system: T cells (splenic T cell proliferation, co-cultured spleen cells from two strains of mice); assay: Mixed lymphocyte response (MLR); type: cell-based; conditions: Mus musculus, Anti-inflammatory/Anti-proliferative Activity
Source text: i Mixed lymphocyte response (MLR).
(§1) The MLR assay measures the effects of a study compound on the activation and antigen presentation of T-lymphocytes, therefore determining immunomodulatory properties. The mouse spleen cell mitogen-induced blastogenesis and the BUD-8 human fibroblast proliferation assays measure the effects of the compounds of the present invention on cellular proliferation of cells involved in the pathogenesis of autoimmune diseases. These two assays are appropriate as screens to ascertain anti-inflammatory and/or autoimmune diseases.
The MLR is a classical assay used to measure T cell function by studying the proliferation response of T cells which are activated in vitro by genetically disparate stimulator cells. This is accomplished by co-culturing spleen cells from two different strains of mice. Splenic T cell proliferation occurs as a result of cellular activation signals generated by the ongoing cellular interactions.
(§2) The detailed experimental procedure for the above-mentioned assays is described in detail in U.S. Pat. Nos. 5,360,790 and 5,367,062 incorporated herein by reference.

[4] = test system: UACC-62 Melanoma Xenografts; assay: Early Stage Subcutaneous Tumor Model UACC-62 Melanoma Xenografts; conditions: for Drug Deaths: of 6 mice; for Opt. % T/C: >40 considered inactive
Method: as §3, §4, §5

BUD-8 human fibroblast = assay: BUD-8 human cell line fibroblast proliferation assay (FIB.); type: cell-based; conditions: Anti-inflammatory/Anti-proliferative Activity
Source text: ii BUD-8 human cell line fibroblast proliferation assay.
as §1
The skin cell fibroblast line, BUD-8, was originally derived from the normal skin of a person and can now be obtained from the American Type Culture Collection, Rockville, Md.
as §2

[5] = test system: COLO 205 Colon Tumor Xenografts; assay: Early Stage SC COLO 205 Colon Tumor Xenografts; conditions: for Drug Deaths: of 6 mice; for Opt. % T/C: >40 considered inactive
Method: as §3, §4, §5

[6] = test system: mouse spleen cell (T-lymphocyte); assay: Concanavalin A (CON-A) assay, mouse spleen cell mitogen induced blastogenesis; type: cell-based; conditions: Anti-inflammatory/Anti-proliferative Activity
Source text: iii Concanavalin A assay (the mouse spleen cell mitogen induced blastogenesis).
as §1
It is known that the induction and maintenance of most inflammatory diseases are typically due to the unrestricted activity of T-lymphocytes. Therefore, it is advantageous to identify compounds which are modulators of T-lymphocyte activity for eventual use in the regulation of inflammatory diseases, including acquired immune deficiency syndrome, psoriasis, systemic lupus, erythromatosus, and rheumatoid arthritis.
as §2

[7] = 50% cell growth inhibition, read-out: GI50 (average)
[8] = log10 of molar concentration, read-out: log10 I50 (log10 GI50 mean graph midpoint) (converted)
[9] = 200 mg/kg/dose IP QD × 5, day 3
[10] = 90 mg/kg/dose IP Q4D × 3, day 6
[11] = 90 mg/kg/dose IP Q4D × 3, day 6, optimum on day 16
[12] = 134 mg/kg/dose IP Q4D × 3, day 6
[13] = 200 mg/kg/dose IP Q4D × 3, day 6
[14] = 90 mg/kg/dose IP Q4D × 3, day 7
[15] = 200 mg/kg/dose IP Q4D × 3, day 7
[16] = 130 mg/kg/dose IP QD × 5, day 3
[17] = 130 mg/kg/dose IP Q4D × 3, day 7

| Structure (SMILES) | antitumor activity (P388 Murine Leukemia) | toxicity (P388 Murine Leukemia) | maximally tolerated dose (P388 Murine Leukemia) | CC50 [1] | GI50 [1, 7] | GI50 [1, 8] | IC (TGI) [1] | in vitro activity in words [1] | Drug Deaths ([2]; 90 mg/kg/dose IP QD × 5, day 3) | IC50 [3] | Drug Deaths [4, 10] | Opt. % T/C [4, 11] | IC50 (BUD-8 human fibroblast) | Drug Deaths [5, 14] | IC50 [6] | also measured |
| --- | --- | --- | --- | --- | --- | --- | --- | --- | --- | --- | --- | --- | --- | --- | --- | --- |
| CCCCCCCCCCCCOC[C@@]12O[C@@H](CN3CCOCC3)[C@@H](O)[C@@H]1OC(C)(C)O2 [Ic, 2,3-O-Isopropylidene-6-deoxy-6-(1-morpholinyl)-1-O-dodecyl-α-L-xylo-2-hexulofuranose] | only slight antitumor activity | toxic at the higher dose levels | a maximally tolerated dose was not achieved | 56.2 µM | 31.6 µM | 14.5 µM | 29.5 µM | significant activity in various in vitro cell lines | 0 | < 1000 nM | 0 | 39% | 14.8 µM | 0 | 10.3 µM | Drug Deaths ([2]; 134 mg/kg/dose IP QD × 5, day 3): 1; Opt. % T/C ([2]; 134 mg/kg/dose IP QD × 5, day 3, optimum on day 9): 36%; Opt. % T/C [2, 9]: Toxic; Drug Deaths [2, 9]: 6; Opt. % T/C ([2]; Ic 90 mg/kg/dose IP QD × 5, day 3, optimum on day 16): 35%; Opt. % T/C [4, 12]: Toxic; Drug Deaths [4, 12]: 6; Opt. % T/C [4, 13]: Toxic; Drug Deaths [4, 13]: 6; Drug Deaths ([5]; 134 mg/kg/dose IP Q4D × 3, day 7): 1; Opt. % T/C ([5]; 134 mg/kg/dose IP Q4D × 3, day 7, optimum on day 29): 40%; Opt. % T/C [5, 15]: Toxic; Drug Deaths [5, 15]: 6; Opt. % T/C ([5]; Ic 90 mg/kg/dose IP Q4D × 3, day 7, optimum on day 36): 43% |
| CCCCCCCCCCCCOC[C@@]12O[C@@H](C)[C@@H](OCCN3CCCCC3)[C@@H]1OC(C)(C)O2 [Im, 2,3-O-Isopropylidene-6-deoxy-1-O-dodecyl-4-O-ethylpiperidinyl-α-L-xylo-2-hexulofuranose] | only slight antitumor activity | toxic at the higher dose levels | a maximally tolerated dose was not achieved | 50.1 µM | 20.2 µM | 9.77 µM | 22.9 µM | significant activity in various in vitro cell lines | 2 | < 1000 nM | 0 | 44% | 3.6 µM | 0 | 7.4 µM | Drug Deaths ([2]; 54 mg/kg/dose IP QD × 5, day 3): 1; Opt. % T/C ([2]; 54 mg/kg/dose IP QD × 5, day 3, optimum on day 16): 47%; Opt. % T/C [2, 16]: Toxic; Drug Deaths [2, 16]: 5; Opt. % T/C ([2]; Im 90 mg/kg/dose IP QD × 5, day 3, optimum on day 9): 49%; Drug Deaths ([4]; 54 mg/kg/dose IP Q4D × 3, day 6): 0; Opt. % T/C ([4]; 54 mg/kg/dose IP Q4D × 3, day 6, optimum on day 9): 51%; Drug Deaths ([4]; 130 mg/kg/dose IP Q4D × 3, day 6): 1; Opt. % T/C ([4]; 130 mg/kg/dose IP Q4D × 3, day 6, optimum on day 16): 42%; Drug Deaths ([5]; 54 mg/kg/dose IP Q4D × 3, day 7): 0; Opt. % T/C ([5]; 54 mg/kg/dose IP Q4D × 3, day 7, optimum on day 36): 44%; Opt. % T/C [5, 17]: Toxic; Drug Deaths [5, 17]: 4; Opt. % T/C ([5]; Im 90 mg/kg/dose IP Q4D × 3, day 7, optimum on day 29): 45% |

From patent US5637570A, “Disubstituted and trisubstituted derivatives of 2,3:4,6-di-O-isopropylidene-α-L-xylo-2-hexulofuranosonic acid having anti-cancer, anti-inflammatory and anti-proliferative activity” (Chemora Pharmochem, priority 1995, dated 1997)
